Among the data in patent publication US11440915B2, “Triazolo-azepine derivatives” (Hoffmann-La Roche Inc., priority 2017, dated 2022) are EC50 values, retold here.

The target in this assay is γ-secretase (Homo sapiens (Human), UniProt P49768). The assay is described as follows: Cellular γ-secretase assay (inhibition of Aβ42 secretion, AlphaLisa). The assay is classed as cell-based. As to conditions: human neuroglioma H4 cells overexpressing human APP695 Swedish double mutation, 24 hr compound incubation. On the procedure:
Human neuroglioma H4 cells overexpressing human APP695 with the Swedish double mutation (K595N/M596L) were plated at 30,000 cells/well/100 μl in 96-well plates in IMDM media containing 10% FCS, 0.2 mg/l Hygromycin B and incubated at 37° C., 5% CO2.
3-4 hr post plating, compounds are a diluted in media and 50 μl is added as 1.5-fold concentrate to achieve the final concentration. Compound incubation is performed for 24 hr. Final doses typically range from 4 μM down to 0.001 μM in half-log steps resulting in a eight point dose response curve.
Appropriate controls using vehicle only and reference compound were applied to this assay. The final concentration of Me2SO was 0.4%.
After incubation at 37° C., 5% CO2, the supernatant was subjected to quantification of secreted Aβ42 by the means of an AlphaLisa assay kit (Human Amyloid beta 1-42 Kit: Cat #AL203C, Perkin Elmer). 20 μl of the cell culture supernatant was transferred to an assay plate. Then 10 μl of a mixture of the AlphaLisa coupled capture antibody and the biotinylated detection antibody was added and incubated for 3 hours at room temperature while softly shaking the assay plate. After a further addition of 20 μl of the Donor beads the assay plate was incubated for 30 min at room temperature and constant shaking without exposure to direct light. The assay plate was then read on a Paradigm AlphaLisa Reader using the build-in program with excitation at 680 nm and emission at 570 nm.
The measured signals were then used to calculate IC50 values for inhibition of Aβ42 secretion by nonlinear regression fit analysis using XLfit 5.3 software (IDBS).
The molecule `Cc1cn(C23CC(Nc4nc5n(n4)CCCC[C@@H]5c4cccc(Cl)c4)(C2)C3)cn1` [Example 1, (9R)-9-(3-chlorophenyl)-N-[3-(4-methylimidazol-1-yl)-1-bicyclo[1.1.1]pentanyl]-6,7,8,9-tetrahydro-5H-[1,2,4]triazolo[1,5-a]azepin-2-amine] yielded an EC50 of 15 nM.
To `Cc1cn(C23CC(Nc4nc5n(n4)CCCC[C@H]5c4cccc(Cl)c4)(C2)C3)cn1` [Example 2, (9S)-9-(3-chlorophenyl)-N-[3-(4-methylimidazol-1-yl)-1-bicyclo[1.1.1]pentanyl]-6,7,8,9-tetrahydro-5H-[1,2,4]triazolo[1,5-a]azepin-2-amine] belongs 16 nM; to `Cc1cn(C23CC(Nc4nc5n(n4)CCCC[C@@H]5c4ccc(F)cc4)(C2)C3)cn1` [Example 3, (9R)-9-(4-fluorophenyl)-N-[3-(4-methylimidazol-1-yl)-1-bicyclo[1.1.1]pentanyl]-6,7,8,9-tetrahydro-5H-[1,2,4]triazolo[1,5-a]azepin-2-amine], 25 nM.
`Cc1cn(C23CC(Nc4nc5n(n4)CCCC[C@H]5c4ccc(F)cc4)(C2)C3)cn1` [Example 4, (9S)-9-(4-fluorophenyl)-N-[3-(4-methylimidazol-1-yl)-1-bicyclo[1.1.1]pentanyl]-6,7,8,9-tetrahydro-5H-[1,2,4]triazolo[1,5-a]azepin-2-amine] gave an EC50 of 31 nM.
With `Cc1cn(C23CC(Nc4nc5n(n4)CCCC[C@@H]5c4ccc(Cl)cc4)(C2)C3)cn1` [Example 5, (9R)-9-(4-chlorophenyl)-N-[3-(4-methylimidazol-1-yl)-1-bicyclo[1.1.1]pentanyl]-6,7,8,9-tetrahydro-5H-[1,2,4]triazolo[1,5-a]azepin-2-amine] the figure was 26 nM.
Molecule `Cc1cn(C23CC(Nc4nc5n(n4)CCCC[C@H]5c4ccc(Cl)cc4)(C2)C3)cn1` [Example 6, (9S)-9-(4-chlorophenyl)-N-[3-(4-methylimidazol-1-yl)-1-bicyclo[1.1.1]pentanyl]-6,7,8,9-tetrahydro-5H-[1,2,4]triazolo[1,5-a]azepin-2-amine] showed an EC50 of 23 nM.
To `Cc1cn(C23CCC(Nc4nc5n(n4)CCCC[C@@H]5c4cc(F)cc(Cl)c4)(CC2)CC3)cn1` [Example 7, (9R)-9-(3-chloro-5-fluoro-phenyl)-N-[4-(4-methylimidazol-1-yl)-1-bicyclo[2.2.2]octanyl]-6,7,8,9-tetrahydro-5H-[1,2,4]triazolo[1,5-a]azepin-2-amine] belongs 15 nM.
To `Cc1cn(C23CCC(Nc4nc5n(n4)CCCC[C@H]5c4cc(F)cc(Cl)c4)(CC2)CC3)cn1` [Example 8, (9S)-9-(3-chloro-5-fluoro-phenyl)-N-[4-(4-methylimidazol-1-yl)-1-bicyclo[2.2.2]octanyl]-6,7,8,9-tetrahydro-5H-[1,2,4]triazolo[1,5-a]azepin-2-amine] belongs 14 nM.
Turning to `Cc1cn(C23CC(Nc4nc5n(n4)CCCC[C@@H]5c4cc(F)cc(Cl)c4)(C2)C3)cn1` [Example 9, (9R)-9-(3-chloro-5-fluoro-phenyl)-N-[3-(4-methylimidazol-1-yl)-1-bicyclo[1.1.1]pentanyl]-6,7,8,9-tetrahydro-5H-[1,2,4]triazolo[1,5-a]azepin-2-amine], the concentration for a half-maximal effect (EC50) came out at 8 nM.
As for `Cc1cn(C23CC(Nc4nc5n(n4)CCCC[C@H]5c4cc(F)cc(Cl)c4)(C2)C3)cn1` [Example 10, (9S)-9-(3-chloro-5-fluoro-phenyl)-N-[3-(4-methylimidazol-1-yl)-1-bicyclo[1.1.1]pentanyl]-6,7,8,9-tetrahydro-5H-[1,2,4]triazolo[1,5-a]azepin-2-amine], the EC50 is 14 nM.
In turn, `Cc1cn(C23CCC(Nc4nc5n(n4)CCCC[C@@H]5c4ccc(F)c(F)c4)(CC2)CC3)cn1` [Example 11, (9R)-9-(3,4-difluorophenyl)-N-[4-(4-methylimidazol-1-yl)-1-bicyclo[2.2.2]octanyl]-6,7,8,9-tetrahydro-5H-[1,2,4]triazolo[1,5-a]azepin-2-amine] came in with an EC50 of 39 nM.
With `Cc1cn(C23CCC(Nc4nc5n(n4)CCCC[C@H]5c4ccc(F)c(F)c4)(CC2)CC3)cn1` [Example 12, (9S)-9-(3,4-difluorophenyl)-N-[4-(4-methylimidazol-1-yl)-1-bicyclo[2.2.2]octanyl]-6,7,8,9-tetrahydro-5H-[1,2,4]triazolo[1,5-a]azepin-2-amine], the EC50 amounted to 49 nM.
On to `Cc1cn(C23CC(Nc4nc5n(n4)CCCC[C@@H]5c4ccc(F)c(F)c4)(C2)C3)cn1` [Example 13, (9R)-9-(3,4-difluorophenyl)-N-[3-(4-methylimidazol-1-yl)-1-bicyclo[1.1.1]pentanyl]-6,7,8,9-tetrahydro-5H-[1,2,4]triazolo[1,5-a]azepin-2-amine], for which the midpoint of the response, the EC50, lay at 44 nM.
With `Cc1cn(C23CC(Nc4nc5n(n4)CCCC[C@H]5c4ccc(F)c(F)c4)(C2)C3)cn1` [Example 14, (9S)-9-(3,4-difluorophenyl)-N-[3-(4-methylimidazol-1-yl)-1-bicyclo[1.1.1]pentanyl]-6,7,8,9-tetrahydro-5H-[1,2,4]triazolo[1,5-a]azepin-2-amine] the figure was 27 nM; with `Cc1cn(C23CC(Nc4nc5n(n4)CCCC[C@@H]5c4ccccc4F)(C2)C3)cn1` [Example 15, (9R)-9-(2-fluorophenyl)-N-[3-(4-methylimidazol-1-yl)-1-bicyclo[1.1.1]pentanyl]-6,7,8,9-tetrahydro-5H-[1,2,4]triazolo[1,5-a]azepin-2-amine], 38 nM; with `Cc1cn(C23CC(Nc4nc5n(n4)CCCC[C@H]5c4ccccc4F)(C2)C3)cn1` [Example 16, (9S)-9-(2-fluorophenyl)-N-[3-(4-methylimidazol-1-yl)-1-bicyclo[1.1.1]pentanyl]-6,7,8,9-tetrahydro-5H-[1,2,4]triazolo[1,5-a]azepin-2-amine], 19 nM.
Molecule `Cc1cn(C23CCC(Nc4nc5n(n4)CCCC[C@@H]5c4ccccc4F)(CC2)CC3)cn1` [Example 17, (9R)-9-(2-fluorophenyl)-N-[4-(4-methylimidazol-1-yl)-1-bicyclo[2.2.2]octanyl]-6,7,8,9-tetrahydro-5H-[1,2,4]triazolo[1,5-a]azepin-2-amine] had an EC50 of 56 nM.
For the molecule `Cc1cn(C23CCC(Nc4nc5n(n4)CCCC[C@H]5c4ccccc4F)(CC2)CC3)cn1` [Example 18, (9S)-9-(2-fluorophenyl)-N-[4-(4-methylimidazol-1-yl)-1-bicyclo[2.2.2]octanyl]-6,7,8,9-tetrahydro-5H-[1,2,4]triazolo[1,5-a]azepin-2-amine], the EC50 is 62 nM.
In turn, `Cc1cn(C23CC(Nc4nc5n(n4)CCCC[C@@H]5c4ccc(F)c(F)c4F)(C2)C3)cn1` [Example 19, (9R)-N-[3-(4-methylimidazol-1-yl)-1-bicyclo[1.1.1]pentanyl]-9-(2,3,4-trifluorophenyl)-6,7,8,9-tetrahydro-5H-[1,2,4]triazolo[1,5-a]azepin-2-amine] had an EC50 of 14 nM.
Regarding `Cc1cn(C23CC(Nc4nc5n(n4)CCCC[C@H]5c4ccc(F)c(F)c4F)(C2)C3)cn1` [Example 20, (9S)-N-[3-(4-methylimidazol-1-yl)-1-bicyclo[1.1.1]pentanyl]-9-(2,3,4-trifluorophenyl)-6,7,8,9-tetrahydro-5H-[1,2,4]triazolo[1,5-a]azepin-2-amine], the EC50 came to 10 nM.
Molecule `Cc1cn(C23CCC(Nc4nc5n(n4)CCCC[C@@H]5c4ccc(F)c(F)c4F)(CC2)CC3)cn1` [Example 21, (9R)-N-[4-(4-methylimidazol-1-yl)-1-bicyclo[2.2.2]octanyl]-9-(2,3,4-trifluorophenyl)-6,7,8,9-tetrahydro-5H-[1,2,4]triazolo[1,5-a]azepin-2-amine] displayed an EC50 of 43 nM.
In the case of `Cc1cn(C23CCC(Nc4nc5n(n4)CCCC[C@H]5c4ccc(F)c(F)c4F)(CC2)CC3)cn1` [Example 22, (9S)-N-[4-(4-methylimidazol-1-yl)-1-bicyclo[2.2.2]octanyl]-9-(2,3,4-trifluorophenyl)-6,7,8,9-tetrahydro-5H-[1,2,4]triazolo[1,5-a]azepin-2-amine], the EC50 was 27 nM.
